Measurements: patent US9808477B2 (Macau University of Science and Technology, priority 2015, dated 2017)
Where two headings read alike, the source gives them in different places.

Experiments:
Format in all cases: cell-based, human
[1] = system: A2780/T cells; test: Intracellular accumulation of doxorubicin and Flutax-2; details: 8 h, 4.5 μM nobiletin or 20 μM QND
[2] = system: A2780/T cells (PTX-resistant, ABCB1-overexpressing ovarian cancer cells); test: cells; details: for IC50: read-out: IC50 ± SD
Experimental: (§1) Sulphorhodamine B (SRB) assays were used for cell density determination, based on sensitive measure of total cellular protein, which perform similarly compared with other proliferation assays such as MTT assay. Briefly, cells were seeded into flat bottomed 96-well plates at an initial density of 7.5×10^3 per well before treatment. […] After removing the medium, cells were fixed in 10% trichloroacetic acid for 1 h at 4° C. and then washed with water five times. 0.4% SRB dissolved in 1% v/v acetic acid was added and incubated […] for staining. The cells were quickly washed with 1% acetic acid and left to dry overnight. The protein bound SRB was solubilized by adding 200 μl 10 mM Tris buffer per well and was measured at wavelengths 490 nm using a plate reader (Spectra MAX 250; Molecular Devices, Sunnyvale, Calif.). The optical density of SRB in each well is directly proportional to the cell number.

[3] = system: A549/T cells (PTX-resistant, ABCB1-overexpressing NSCLC cells); test: SRB cell cytotoxicity / MDR reversal assay; details: for fold reversal: drug alone (reference)
Experimental: as §1

[4] = system: A2780/T cells; test: Combination index, Chou-Talalay method (CalcuSyn); details: Homo sapiens, A2780, read-out: Dose PTX at Fa = 0.5 (ED50), CalcuSyn simulation, A2780/T; PTX dose, alone or in the combination
[5] = system: A2780 cells; test: Cell cycle analysis (PI, flow cytometry); details: A2780, PTX 0.01 μM
[6] = system: A2780/T cells; test: Apoptosis analysis by Annexin-V/PI double staining; details: 9 μM nobiletin alone or 0.94 μM PTX alone
Experimental: After treatment, 1×10^6 cells were collected, washed and suspended in 100 μl of binding buffer (10 mM N-2-hydroxyethylpiperazine-N,-2-ethanesulfonic acid/NaOH, 140 mM NaCl, 2.5 mM CaCl2, pH 7.4). Apoptotic cells were identified by double supravital staining with 5 μl recombinant FITC (fluorescein isothiocyanate)-conjugated Annexin-V and 5 μl PI (50 μg/ml). The cells were stained for […] at room temperature in the dark, and analyzed by fluorescence-activated cell sorting cater-plus flow cytometry. Data acquisition and analysis were performed in BD FACS Aria with FlowJo software.

[7] = system: A2780/T cells; test: Colony formation assay; details: 9 μM nobiletin alone or 0.94 μM PTX alone, 12 days
Excerpt: The A2780/T cells were trypsinized and plated in fresh culture medium at a density of 600 cells/9.6 cm^2 plate. Subsequently, the cells were fixed with 70% ethanol and stained with crystal violet (0.5% in ethanol). The plates were rinsed with phosphate buffered saline (PBS), and the colony numbers were counted using the software of Quantity one-Colony counting.

[8] = system: A2780/T cells; test: Cell cycle analysis (PI, flow cytometry); details: 0.94 μM PTX, no nobiletin
Experimental: A2780/T cells were harvested 24 hours, 48 hours, or 72 hours after treatment and washed twice with ice-cold PBS. The cells were fixed and permeabilized with 70% ice-cold ethanol overnight at 4° C. or 2 h at −20° C. After one additional wash in PBS, cells were stained with a staining solution containing propidium iodide (PI) ([…]) and RNase A (250 μg/ml) for 30 min at room temperature. They were then pelleted, washed and suspended in PBS to a final concentration of 1×10^6/ml and analyzed by flow cytometry BD FACS Aria (BD Biosciences, San Jose, Calif.).

[9] = A2780/T, 48 h, drug +0.5 μM nobiletin (N)
[10] = A2780/T, 48 h, drug +1.5 μM nobiletin (N)
[11] = A2780/T, 48 h, drug +4.5 μM nobiletin (N)
[12] = Homo sapiens, A2780, 48 h, A2780/T, 48 h, SRB, drug alone (no nobiletin)
[13] = Homo sapiens, A549, 48 h, 48 h, SRB, drug alone (no nobiletin)

Row | Structure (SMILES) | fold reversal [2] [fold] | IC50 [2, 9] [µM] | IC50 [2, 10] [µM] | IC50 [2, 11] [µM] | IC50 [2, 12] [µM] | IC50 [3, 13] [µM] | Fold reversal (IC50 without / with nobiletin) ([3]; drug +0.5 μM nobiletin) [fold] | Fold reversal (IC50 without / with nobiletin) ([3]; drug +1.5 μM nobiletin) [fold] | Fold reversal (IC50 without / with nobiletin) ([3]; drug +4.5 μM nobiletin) [fold] | IC50 ([3]; drug +4.5 μM nobiletin (N)) [µM] | fold reversal [3] [fold] | IC50 ([3]; drug +0.5 μM nobiletin (N)) [µM] | IC50 ([3]; drug +1.5 μM nobiletin (N)) [µM] | degree of resistance: mean IC50 in A2780/T cells relative to A2780 [2] [fold] | IC50 ([2]; Homo sapiens, A2780, 48 h) [µM] | other results
1 | C=C[C@H]1C[N@@]2CC[C@H]1C[C@@H]2[C@@H](O)c1ccnc2ccc(OC)cc12 [QND, quinidine] |  |  |  |  |  |  |  |  |  |  |  |  |  |  |  | intracellular accumulation of DOX ([1]; 5 μM DOX): higher than that in untreated A2780/T; intracellular accumulation of Flutax-2 ([1]; Flutax-2 1 μM): higher than that in untreated A2780/T
2 | O=c1[nH]cc(F)c(=O)[nH]1 [5-Fluorouracil] | 1.00 | 132 ± 23.8 | 79.8 ± 9.18 | 26.1 ± 1.77 | 159 ± 18.3 | 134 ± 10.9 | 1.26 ± 0.01 | 1.99 ± 0.01 | 7.94 ± 0.02 | 16.8 ± 1.36 | 1.00 |  |  |  |  | Fold reversal (IC50 without / with nobiletin) ([3]; drug +4.5 μM nobiletin, listed as 5-fluorouracil): 7.94 fold
3 | CC(=O)O[C@@]12CO[C@@H]1C[C@H](O)[C@@]1(C)C(=O)[C@H](O)C3=C(C)[C@@H](OC(=O)[C@H](O)[C@@H](NC(=O)OC(C)(C)C)c4ccccc4)C[C@@](O)([C@@H](OC(=O)c4ccccc4)[C@H]21)C3(C)C [Docetaxel] | 1.00 | 8.97 ± 1.46 |  | 1.13 ± 0.18 | 17.9 ± 2.89 | 13.4 ± 1.09 | 1.59 ± 0.01 | 5.05 ± 0.82 | 19.18 ± 4.59 | 0.71 ± 0.11 | 1.00 | 8.43 ± 0.69 | 2.67 ± 0.22 |  |  | IC50 ([2]; Homo sapiens, A2780, 48 h, A2780/T, 48 h, drug +1.5 μM nobiletin (N)): 3.57 ± 0.58 µM; Fold reversal (IC50 without / with nobiletin) ([3]; drug +4.5 μM nobiletin, listed as docetaxel): 19.18 fold
4 | CC(=O)O[C@H]1C(=O)[C@@]2(C)[C@H]([C@H](OC(=O)c3ccccc3)[C@]3(O)C[C@H](OC(=O)[C@H](O)[C@@H](NC(=O)c4ccccc4)c4ccccc4)C(C)=C1C3(C)C)[C@]1(OC(C)=O)CO[C@@H]1C[C@@H]2O [Paclitaxel] | 1.00 |  |  |  |  | 1.89 ± 0.15 | 2.51 ± 0.01 | 5.65 ± 0.8 | 22.33 ± 3.6 | 0.09 ± 0.01 | 1.00 | 0.75 ± 0.06 | 0.34 ± 0.02 | 501 | 2.51 | EC50 [4]: 4.2 µM; Fold reversal (IC50 without / with nobiletin) ([3]; drug +0.5 μM nobiletin, listed as PTX): 2.51 fold; Fold reversal (IC50 without / with nobiletin) ([3]; drug +1.5 μM nobiletin, listed as PTX): 5.65 fold; Fold reversal (IC50 without / with nobiletin) ([3]; drug +4.5 μM nobiletin, listed as PTX): 22.33 fold; Fold reversal (IC50 without / with nobiletin) ([3]; drug +4.5 μM nobiletin, listed as paclitaxel): 22.33 fold; Fold reversal (IC50 without / with nobiletin) ([3]; drug +9 μM nobiletin): 62.88 ± 0.98 fold; IC50 ([3]; drug +9 μM nobiletin (N)): 0.03 ± 0.004 µM; Fold reversal (IC50 without / with nobiletin) ([3]; drug +9 μM nobiletin, listed as PTX): 62.88 fold; G1 phase content ([5]; 24 hours): 46.47%; G2-M content ([5]; 24 hours): 31.9%; G1 phase content ([5]; 48 hours): 15.57%; G2-M content ([5]; 48 hours): 63.2%; G1 phase content ([5]; 72 hours): 5.53%; G2-M content ([5]; 72 hours): 80.07%; apoptosis induction, single treatment [6]: did not show apoptosis induction; inhibition of colony formation, single agent [7]: no inhibition; G1 phase cells [8]: 72%; G2 phase cells [8]: 17%
5 | COc1cccc2c1C(=O)c1c(O)c3c(c(O)c1C2=O)C[C@@](O)(C(C)=O)C[C@@H]3O[C@H]1C[C@H](N)[C@H](O)[C@H](C)O1 [Daunorubicin] | 1.00 |  |  |  |  | 10.1 ± 1.63 | 1.68 ± 0.14 | 3.55 ± 0.01 | 14.17 ± 0.04 | 0.71 ± 0.13 | 1.00 | 5.97 ± 0.49 | 2.84 ± 0.46 |  | 11.9 ± 0.97 | Fold reversal (IC50 without / with nobiletin) ([3]; drug +4.5 μM nobiletin, listed as daunorubicin): 14.17 fold
6 | COc1cccc2c1C(=O)c1c(O)c3c(c(O)c1C2=O)C[C@@](O)(C(=O)CO)C[C@@H]3O[C@H]1C[C@H](N)[C@H](O)[C@H](C)O1 [Doxorubicin] | 1.00 | 3.77 ± 0.3 | 1.89 ± 0.16 | 1.13 ± 0.18 | 5.97 ± 0.49 | 5.97 ± 0.49 | 1.42 ± 0.23 | 2.25 ± 0.37 | 5.01 ± 0.01 | 1.19 ± 0.1 | 1.00 | 4.23 ± 0.35 | 2.67 ± 0.22 | 158 |  | IC50 ([2]; A2780/T, 48 h, drug +9 μM nobiletin (N)): 0.38 ± 0.04 µM; Fold reversal (IC50 without / with nobiletin) ([3]; drug +4.5 μM nobiletin, listed as doxorubicin): 5.01 fold
